Test system: 12 single or co-culture in vitro tissue models of primary cells
Assay: Culture/co-culture cell model panel, extracellular biomarkers (DiscoveRx); for CCL2/MCP-1: reference of the scale not given here; for CD141/Thrombomodulin: reference of the scale not given here; for CD142/Tissue Factor: reference of the scale not given here; for CXCL8/IL-8: reference of the scale not given here; for CXCL9/MIG: reference of the scale not given here; for M-CSF: reference of the scale not given here; for SRB: reference of the scale not given here
Type: cell-based, human
[1] = /HDFNo unstimulated fibroblasts, 1.00E0 nM
[2] = /HDFNo unstimulated fibroblasts, 1.00E1 nM
[3] = /HDFNo unstimulated fibroblasts, 1.00E2 nM
[4] = /HDFNo unstimulated fibroblasts, 1.00E3 nM
[5] = /HDFNo unstimulated fibroblasts, 1.00E4 nM

SMILES: CN1c2ccc(-c3cncc(Cl)c3N3CCC4(CC3)CNC(=O)O4)cc2CS1(=O)=O [CMPD2]
- CCL2/MCP-1 (3C, 1.00E0 nM): 0.00665
- CD54/ICAM-1 (3C, 1.00E0 nM): -0.015
- CD87/uPAR (3C, 1.00E0 nM): -0.232
- CD106/VCAM-1 (3C, 1.00E0 nM): 0.040
- CD141/Thrombomodulin (3C, 1.00E0 nM): 0.035
- CD142/Tissue Factor (3C, 1.00E0 nM): 0.086
- CXCL8/IL-8 (3C, 1.00E0 nM): 0.001
- CXCL9/MIG (3C, 1.00E0 nM): -0.002
- HLA-DR (3C, 1.00E0 nM): -0.059
- Proliferation (3C, 1.00E0 nM): -0.0027
- SRB (3C, 1.00E0 nM): -0.057
- CCL2/MCP-1 (3C, 1.00E1 nM): -0.088
- CD54/ICAM-1 (3C, 1.00E1 nM): -0.034
- CD87/uPAR (3C, 1.00E1 nM): -0.339
- CD106/VCAM-1 (3C, 1.00E1 nM): 0.048
- CD141/Thrombomodulin (3C, 1.00E1 nM): 0.056
- CD142/Tissue Factor (3C, 1.00E1 nM): 0.130
- CXCL8/IL-8 (3C, 1.00E1 nM): -0.104
- CXCL9/MIG (3C, 1.00E1 nM): -0.011
- HLA-DR (3C, 1.00E1 nM): -0.129
- Proliferation (3C, 1.00E1 nM): -0.036
- SRB (3C, 1.00E1 nM): -0.071
- CCL2/MCP-1 (3C, 1.00E2 nM): -0.157
- CD54/ICAM-1 (3C, 1.00E2 nM): -0.046
- CD87/uPAR (3C, 1.00E2 nM): -0.368
- CD106/VCAM-1 (3C, 1.00E2 nM): 0.046
- CD141/Thrombomodulin (3C, 1.00E2 nM): 0.051
- CD142/Tissue Factor (3C, 1.00E2 nM): 0.120
- CXCL8/IL-8 (3C, 1.00E2 nM): -0.212
- CXCL9/MIG (3C, 1.00E2 nM): -0.016
- HLA-DR (3C, 1.00E2 nM): -0.138
- Proliferation (3C, 1.00E2 nM): -0.098
- SRB (3C, 1.00E2 nM): -0.085
- CCL2/MCP-1 (3C, 1.00E3 nM): -0.150
- CD54/ICAM-1 (3C, 1.00E3 nM): -0.055
- CD87/uPAR (3C, 1.00E3 nM): -0.368
- CD106/VCAM-1 (3C, 1.00E3 nM): 0.045
- CD141/Thrombomodulin (3C, 1.00E3 nM): 0.055
- CD142/Tissue Factor (3C, 1.00E3 nM): 0.116
- CXCL8/IL-8 (3C, 1.00E3 nM): -0.275
- CXCL9/MIG (3C, 1.00E3 nM): -0.019
- HLA-DR (3C, 1.00E3 nM): -0.153
- Proliferation (3C, 1.00E3 nM): -0.074
- SRB (3C, 1.00E3 nM): -0.078
- CCL2/MCP-1 (3C, 1.00E4 nM): -0.161
- CD54/ICAM-1 (3C, 1.00E4 nM): -0.041
- CD87/uPAR (3C, 1.00E4 nM): -0.370
- CD106/VCAM-1 (3C, 1.00E4 nM): 0.044
- CD141/Thrombomodulin (3C, 1.00E4 nM): 0.020
- CD142/Tissue Factor (3C, 1.00E4 nM): 0.089
- CXCL8/IL-8 (3C, 1.00E4 nM): -0.273
- CXCL9/MIG (3C, 1.00E4 nM): -0.019
- HLA-DR (3C, 1.00E4 nM): -0.147
- Proliferation (3C, 1.00E4 nM): -0.089
- SRB (3C, 1.00E4 nM): -0.086
- CCL2/MCP-1 (/HDF3CT, 1.00E0 nM): -0.00225
- CD54/ICAM-1 (/HDF3CT, 1.00E0 nM): -0.030
- CD106/VCAM-1 (/HDF3CT, 1.00E0 nM): 0.019
- CXCL8/IL-8 (/HDF3CT, 1.00E0 nM): -0.027
- CXCL9/MIG (/HDF3CT, 1.00E0 nM): 0.019
- CXCL10/IP-10 (/HDF3CT, 1.00E0 nM): 0.006
- Collagen I (/HDF3CT, 1.00E0 nM): -0.00072
- M-CSF (/HDF3CT, 1.00E0 nM): 0.017
- MMP-1 (/HDF3CT, 1.00E0 nM): 0.072
- PAI-I (/HDF3CT, 1.00E0 nM): 0.018
- SRB (/HDF3CT, 1.00E0 nM): 0.014
- TIMP-2 (/HDF3CT, 1.00E0 nM): 0.034
- CCL2/MCP-1 (/HDF3CT, 1.00E1 nM): -0.044
- CD54/ICAM-1 (/HDF3CT, 1.00E1 nM): -0.067
- CD106/VCAM-1 (/HDF3CT, 1.00E1 nM): 0.019
- CXCL8/IL-8 (/HDF3CT, 1.00E1 nM): -0.054
- CXCL9/MIG (/HDF3CT, 1.00E1 nM): 0.015
- CXCL10/IP-10 (/HDF3CT, 1.00E1 nM): 0.022
- Collagen I (/HDF3CT, 1.00E1 nM): -0.038
- M-CSF (/HDF3CT, 1.00E1 nM): -0.031
- MMP-1 (/HDF3CT, 1.00E1 nM): 0.112
- PAI-I (/HDF3CT, 1.00E1 nM): -0.053
- SRB (/HDF3CT, 1.00E1 nM): -0.00569
- TIMP-2 (/HDF3CT, 1.00E1 nM): 0.057
- CCL2/MCP-1 (/HDF3CT, 1.00E2 nM): -0.108
- CD54/ICAM-1 (/HDF3CT, 1.00E2 nM): -0.073
- CD106/VCAM-1 (/HDF3CT, 1.00E2 nM): 0.009
- CXCL8/IL-8 (/HDF3CT, 1.00E2 nM): -0.154
- CXCL9/MIG (/HDF3CT, 1.00E2 nM): -0.031
- CXCL10/IP-10 (/HDF3CT, 1.00E2 nM): 0.011
- Collagen I (/HDF3CT, 1.00E2 nM): -0.041
- M-CSF (/HDF3CT, 1.00E2 nM): -0.045
- MMP-1 (/HDF3CT, 1.00E2 nM): 0.027
- PAI-I (/HDF3CT, 1.00E2 nM): -0.092
- SRB (/HDF3CT, 1.00E2 nM): -0.00555
- TIMP-2 (/HDF3CT, 1.00E2 nM): 0.013
- CCL2/MCP-1 (/HDF3CT, 1.00E3 nM): -0.094
- CD54/ICAM-1 (/HDF3CT, 1.00E3 nM): -0.080
- CD106/VCAM-1 (/HDF3CT, 1.00E3 nM): -0.001
- CXCL8/IL-8 (/HDF3CT, 1.00E3 nM): -0.182
- CXCL9/MIG (/HDF3CT, 1.00E3 nM): -0.043
- CXCL10/IP-10 (/HDF3CT, 1.00E3 nM): 0.00749
- Collagen I (/HDF3CT, 1.00E3 nM): -0.064
- M-CSF (/HDF3CT, 1.00E3 nM): -0.064
- MMP-1 (/HDF3CT, 1.00E3 nM): 0.014
- PAI-I (/HDF3CT, 1.00E3 nM): -0.119
- SRB (/HDF3CT, 1.00E3 nM): -0.020
- TIMP-2 (/HDF3CT, 1.00E3 nM): 0.052
- CCL2/MCP-1 (/HDF3CT, 1.00E4 nM): -0.114
- CD54/ICAM-1 (/HDF3CT, 1.00E4 nM): -0.089
- CD106/VCAM-1 (/HDF3CT, 1.00E4 nM): 0.006
- CXCL8/IL-8 (/HDF3CT, 1.00E4 nM): -0.206
- CXCL9/MIG (/HDF3CT, 1.00E4 nM): -0.053
- CXCL10/IP-10 (/HDF3CT, 1.00E4 nM): 0.009
- Collagen I (/HDF3CT, 1.00E4 nM): -0.042
- M-CSF (/HDF3CT, 1.00E4 nM): -0.068
- MMP-1 (/HDF3CT, 1.00E4 nM): 0.035
- PAI-I (/HDF3CT, 1.00E4 nM): -0.129
- SRB (/HDF3CT, 1.00E4 nM): 0.00189
- TIMP-2 (/HDF3CT, 1.00E4 nM): 0.072
- CXCL8/IL-8 [1]: 0.063
- CXCL9/MIG [1]: 0.141
- CXCL10/IP-10 [1]: 0.082
- CXCL11/I-TAC [1]: 0.071
- EGFR [1]: 0.035
- M-CSF [1]: 0.081
- MMP-1 [1]: 0.152
- PAI-I [1]: 0.049
- Proliferation_72hr [1]: 0.007
- SRB [1]: 0.029
- TIMP-1 [1]: 0.066
- TIMP-2 [1]: 0.143
- CXCL8/IL-8 [2]: -0.030
- CXCL9/MIG [2]: 0.069
- CXCL10/IP-10 [2]: 0.062
- CXCL11/I-TAC [2]: 0.000639
- EGFR [2]: 0.025
- M-CSF [2]: 0.039
- MMP-1 [2]: 0.095
- PAI-I [2]: 0.00174
- Proliferation_72hr [2]: 0.026
- SRB [2]: -0.013
- TIMP-1 [2]: 0.023
- TIMP-2 [2]: 0.114
- CXCL8/IL-8 [3]: 0.056
- CXCL9/MIG [3]: 0.068
- CXCL10/IP-10 [3]: 0.052
- CXCL11/I-TAC [3]: -0.029
- EGFR [3]: 0.009
- M-CSF [3]: 0.012
- MMP-1 [3]: 0.109
- PAI-I [3]: 0.059
- Proliferation_72hr [3]: 0.043
- SRB [3]: -0.046
- TIMP-1 [3]: 0.021
- TIMP-2 [3]: 0.081
- CXCL8/IL-8 [4]: -0.00424
- CXCL9/MIG [4]: 0.019
- CXCL10/IP-10 [4]: 0.029
- CXCL11/I-TAC [4]: 0.022
- EGFR [4]: 0.016
- M-CSF [4]: 0.038
- MMP-1 [4]: 0.108
- PAI-I [4]: 0.005
- Proliferation_72hr [4]: 0.043
- SRB [4]: -0.011
- TIMP-1 [4]: -0.038
- TIMP-2 [4]: 0.090
- CXCL8/IL-8 [5]: 0.043
- CXCL9/MIG [5]: 0.044
- CXCL10/IP-10 [5]: 0.051
- CXCL11/I-TAC [5]: -0.015
- EGFR [5]: 0.031
- M-CSF [5]: -0.007
- MMP-1 [5]: 0.080
- PAI-I [5]: 0.026
- Proliferation_72hr [5]: 0.023
- SRB [5]: -0.018
- TIMP-1 [5]: -0.039
- TIMP-2 [5]: 0.105
- CCL2/MCP-1 (/HDFNo, 1.00E0 nM): 0.045
- CD54/ICAM-1 (/HDFNo, 1.00E0 nM): 0.099
- CD106/VCAM-1 (/HDFNo, 1.00E0 nM): 0.066
- Collagen I (/HDFNo, 1.00E0 nM): 0.074
- Collagen III (/HDFNo, 1.00E0 nM): 0.041
- CCL2/MCP-1 (/HDFNo, 1.00E1 nM): 0.107
- CD54/ICAM-1 (/HDFNo, 1.00E1 nM): 0.090
- CD106/VCAM-1 (/HDFNo, 1.00E1 nM): 0.050
- Collagen I (/HDFNo, 1.00E1 nM): 0.084
- Collagen III (/HDFNo, 1.00E1 nM): 0.042
- CCL2/MCP-1 (/HDFNo, 1.00E2 nM): 0.018
- CD54/ICAM-1 (/HDFNo, 1.00E2 nM): 0.060
- CD106/VCAM-1 (/HDFNo, 1.00E2 nM): 0.020
- Collagen I (/HDFNo, 1.00E2 nM): 0.100
- Collagen III (/HDFNo, 1.00E2 nM): 0.061
- CCL2/MCP-1 (/HDFNo, 1.00E3 nM): -0.027
- CD54/ICAM-1 (/HDFNo, 1.00E3 nM): 0.063
- CD106/VCAM-1 (/HDFNo, 1.00E3 nM): 0.049
- Collagen I (/HDFNo, 1.00E3 nM): 0.108
